Measured values published in PMC6018403 (Frontiers in Pharmacology, 2018).
Where two headings read alike, the source gives them in different places.

Assay: Multi-component pharmacokinetic study of GQD, GQD-GC and single herb extracts in rats (plasma, LC/MS/MS)
Format: in vivo, Sprague-Dawley rats
Settings: for AUC(0-t) / Cmax / half-life / Tmax: male, Sprague-Dawley, rat
Protocol: Male Sprague-Dawley rats (220–250 g) were used for PK study, and the details were described in Supplemental Data. All procedures were in accordance with the National Institutes of Health Guide for the Care and Use of Laboratory Animals.
For PK study of GQD and its component herbs, rats were randomly divided into six groups (n = 10 for each group) before oral administration.
All blood samples were immediately centrifuged at 6,000 rpm (4°C) for 20 min to obtain plasma. The plasma samples were stored at −80°C.
A Finnigan TSQ Quantum triple quadrupole mass spectrometer was connected to a Surveyor HPLC via ESI interface (ThermoFisher). High purity nitrogen was used as the sheath and auxiliary gas; Ultra-high purity argon was used as the collision gas (1.5 mTorr). Q1 and Q3 quadrupoles were set at unit resolution. […] The column temperature was 40°C. The mobile phase consisted of acetonitrile containing 2% (v/v) methanol (A) and water containing 0.1% (v/v) formic acid (B). […] An aliquot of 5 μL was injected for analysis. UV spectra were obtained by scanning from 200 to 400 nm. The mass spectrometer was operated in the (+)-ESI mode. The optimized parameters were as follows: sheath gas (N2), 50 arb; auxiliary gas (N2), 5 arb; spray voltage, 4.0 kV; capillary temperature, 330°C; collision energy, see Table S1. Analytes were detected in the selected reaction monitoring (SRM) mode. Data were processed by Xcalibur 2.0.7 software (ThermoFisher).
LC/MS/MS calibration and quantitation data were processed with Xcalibur 2.0.7 software (ThermoFisher). The maximal plasma concentrations (Cmax) and their time of occurrence (Tmax) were obtained directly from the measured data. Other pharmacokinetic parameters were calculated by non-compartment or compartment models using WinNonlin® software (v6.1, Pharsight). Unless otherwise stated, results were expressed as the mean ± SD. Statistical significance in differences of the means was determined by Student's t–test, with a significance level of P < 0.05.
Herbal materials and extracts.
The four component herbs, Puerariae Lobatae Radix (Ge-Gen, GG), Scutellariae Radix (Huang-Qin, HQ), Coptidis Rhizoma (Huang-Lian, HL), and Glycyrrhizae Radix et Rhizoma Praeparata cum Melle (Gan-Cao, GC) were purchased from Tianheng Pharmacy. GQD was prepared by decocting the four component herbs […]
pre-extraction of Ge-Gen using 200 mL of water for 0.5 h. The decoctions were combined, filtered, and concentrated in vacuum at 50 °C. GQD-GC was prepared using the same procedure, except that Gan-Cao was removed from the formula. Final concentration of the GQD-GC extract was equivalent to 1.0 g of the crude drugs per mL. For single herb extracts, the herbs were decocted in 8-fold volume of water for […]
Final concentrations of the extracts were 1.0 g/mL for Ge-Gen, and 0.5 g/mL for Huang-Qin, Huang-Lian and […]
For pharmacokinetic study, Male Sprague-Dawley rats (220-250 g) were obtained from the Laboratory Animal Center of Peking University Health Science Center. The […]
The rats had free access to tap water and soy-free custom diet (Ke’ao Xieli Co.). All procedures were in accordance with the National Institutes of Health Guide for the Care and Use of Laboratory Animals […]
Experimental details for the PK study
1. Preparation of internal standard solution, calibration standard solutions, and quality control solutions […]
internal standard solution. Reference standard compounds were dissolved in the internal standard solution to prepare individual stock solutions (1.0 mg/mL). These […]
each compound. The standard solution was then serially diluted to obtain calibration […]
Quality control stock solutions were prepared at three concentration levels as high QC (HQC), middle QC (MQC), and low QC (LQC), based on linear ranges of the analytes.
2.1. Sample preparation for pharmacokinetic study
The calibration standard and quality control solutions for pharmacokinetic study were […]

[1] = plasma, po, 16.5 g/kg, GQD-GC group (GQD without Gan-Cao): rats, oral 16.5 g/kg, plasma, read-out: AUClast
[2] = plasma, po, 18.9 g/kg, GQD group: rats, oral GQD extract 18.9 g/kg, plasma, read-out: AUClast
[3] = GQD group: rats, oral GQD extract 18.9 g/kg, plasma, read-out: Cmax
[4] = GQD group: rats, oral GQD extract 18.9 g/kg, plasma, read-out: T1/2 (converted)
[5] = GQD group: rats, oral GQD extract 18.9 g/kg, plasma, read-out: Tmax
[6] = GQD-GC group (GQD without Gan-Cao): rats, oral 16.5 g/kg, plasma, read-out: Cmax
[7] = GQD-GC group (GQD without Gan-Cao): rats, oral 16.5 g/kg, plasma, read-out: T1/2 (converted)
[8] = GQD-GC group (GQD without Gan-Cao): rats, oral 16.5 g/kg, plasma, read-out: Tmax
[9] = plasma, po, 18.9 g/kg, GQD group: rats, oral GQD 18.9 g/kg (1.5-fold of clinical dosage), plasma, read-out: AUClast

AUC(0-t) [1] | AUC(0-t) [2] | Cmax [3] | half-life [4] | Tmax [5] | Cmax [6] | half-life [7] | Tmax [8] | AUC(0-t) [9] | Compound | other results
599 ± 215 ng·h/mL | 700 ± 77 ng·h/mL | 48.8 ± 3.88 ng/mL | 4.33 ± 3.23 h | 0.44 ± 3.87 h | 59.4 ± 5.34 ng/mL | 2.85 ± 0.54 h | 0.34 ± 0.07 h | > 700 ng·h/mL | COc1c(O)c(O[C@@H]2O[C@H](C(=O)O)[C@@H](O)[C@H](O)[C@H]2O)cc2oc(-c3ccccc3)cc(=O)c12 [Compound 38, lateriflorein 7-O-glucuronide] | AUC(0-t) (plasma, po, 3.54 g/kg, HQ (Huang-Qin) group: rats, oral extract 3.54 g/kg, plasma, read-out: AUClast): 1170 ± 342 ng·h/mL; Cmax (HQ (Huang-Qin) group: rats, oral extract 3.54 g/kg, plasma, read-out: Cmax): 213 ± 34.3 ng/mL; half-life (HQ (Huang-Qin) group: rats, oral extract 3.54 g/kg, plasma, read-out: T1/2 (converted)): 1.58 ± 0.14 h; Tmax (HQ (Huang-Qin) group: rats, oral extract 3.54 g/kg, plasma, read-out: Tmax): 0.31 ± 0.03 h
47.3 ± 9.31 ng·h/mL | 198 ± 74.9 ng·h/mL | 19.7 ± 5.67 ng/mL | 8.35 ± 1.26 h | 4.13 ± 1.21 h | 5.21 ± 1.2 ng/mL | 4.54 ± 1.43 h | 0.28 ± 0.13 h | > 100 ng·h/mL | COc1ccc2c(c1O)-c1c(O)c(OC)cc3c1[C@H](C2)[N+](C)(C)CC3 [Compound 19, magnoflorine] | AUC(0-t) (plasma, po, 3.54 g/kg, HL (Huang-Lian) group: rats, oral extract 3.54 g/kg, plasma, read-out: AUClast): 556 ± 224 ng·h/mL; Cmax (HL (Huang-Lian) group: rats, oral extract 3.54 g/kg, plasma, read-out: Cmax): 76.4 ± 23.4 ng/mL; half-life (HL (Huang-Lian) group: rats, oral extract 3.54 g/kg, plasma, read-out: T1/2 (converted)): 10.2 ± 4.34 h; Tmax (HL (Huang-Lian) group: rats, oral extract 3.54 g/kg, plasma, read-out: Tmax): 4.21 ± 3.47 h

Second part, the compound before the results:

Compound | AUC(0-t) [1] | AUC(0-t) [2] | Cmax [3] | half-life [4] | Tmax [5] | Cmax [6] | half-life [7] | Tmax [8] | AUC(0-t) [9] | other results
O=c1c(-c2ccc(O)cc2)coc2c(C3OC(COC4OCC(O)(CO)C4O)C(O)C(O)C3O)c(O)cc(O)c12 (stereo not drawn) [Compound 6, genistein 8-C-apiofuranosyl(1,6)glucoside] | 96.3 ± 105 ng·h/mL | 98.8 ± 24.8 ng·h/mL | 11.3 ± 3.32 ng/mL | 6.77 ± 3.44 h | 8.39 ± 0.23 h | 12.1 ± 7.87 ng/mL | 2.15 ± 1.7 h | 1.56 ± 1.53 h | – | AUC(0-t) (plasma, po, 9.45 g/kg, GG (Ge-Gen) group: rats, oral extract 9.45 g/kg, plasma, read-out: AUClast): 168 ± 33.6 ng·h/mL; Cmax (GG (Ge-Gen) group: rats, oral extract 9.45 g/kg, plasma, read-out: Cmax): 11.3 ± 1.8 ng/mL; half-life (GG (Ge-Gen) group: rats, oral extract 9.45 g/kg, plasma, read-out: T1/2 (converted)): 5.57 ± 3.48 h; Tmax (GG (Ge-Gen) group: rats, oral extract 9.45 g/kg, plasma, read-out: Tmax): 0.73 ± 0.3 h
O=C(/C=C/c1ccc(O[C@@H]2O[C@H](CO)[C@@H](O)[C@H](O)[C@H]2O)cc1)c1ccc(O)cc1O [Compound 27, isoliquiritin] | – | – | – | – | – | – | – | – | – | AUC(0-t) (in vivo, po, 2.36 g/kg, GC (Gan-Cao) group: rats, oral extract 2.36 g/kg, plasma, read-out: AUClast): 8.46 ± 2.99 ng·h/mL; AUC(0-t) (in vivo, po, 18.9 g/kg, GQD group: rats, oral GQD extract 18.9 g/kg, plasma, read-out: AUClast): 11.9 ± 2.4 ng·h/mL; Cmax (in vivo, GC (Gan-Cao) group: rats, oral extract 2.36 g/kg, plasma, read-out: Cmax): 2.17 ± 0.98 ng/mL; half-life (in vivo, GC (Gan-Cao) group: rats, oral extract 2.36 g/kg, plasma, read-out: T1/2 (converted)): 0.91 ± 0.08 h; Tmax (in vivo, GC (Gan-Cao) group: rats, oral extract 2.36 g/kg, plasma, read-out: Tmax): 0.4 ± 1.23 h; Cmax (in vivo, GQD group: rats, oral GQD extract 18.9 g/kg, plasma, read-out: Cmax): 2.59 ± 2.43 ng/mL; half-life (in vivo, GQD group: rats, oral GQD extract 18.9 g/kg, plasma, read-out: T1/2 (converted)): 1.62 ± 0.33 h; Tmax (in vivo, GQD group: rats, oral GQD extract 18.9 g/kg, plasma, read-out: Tmax): 0.49 ± 1.01 h; plasma concentrations, effect of GQD compared with Gan-Cao (rats, oral): improved
COc1c(O)cc2oc(-c3ccccc3)cc(=O)c2c1O [Compound 9, oroxylin A] | – | – | – | – | – | – | – | – | – | Cmax (in vivo, po, 3.54 g/kg): 43.6 ± 3.04 ng/mL; Tmax (in vivo, po, 3.54 g/kg): 0.08 ± 0.53 h; half-life (in vivo, po, 3.54 g/kg): 5.29 ± 2.33 h; AUC(0-t) (in vivo, po, 3.54 g/kg, AUClast): 351 ± 174 ng·h/mL
